Our source for the Ki values is patent publication US8669247B2, “2,5-disubstituted arylsulfonamide CCR3 antagonists” (Axikin Pharmaceuticals, Inc., priority 2009, dated 2014).

In general, Ki refers to a measure of affinity in units of concentration, obtained from inhibition or displacement.

The target of this experiment is T1, CCR3 receptor (UniProt P51677).
T1 sequence (P51677 1-355): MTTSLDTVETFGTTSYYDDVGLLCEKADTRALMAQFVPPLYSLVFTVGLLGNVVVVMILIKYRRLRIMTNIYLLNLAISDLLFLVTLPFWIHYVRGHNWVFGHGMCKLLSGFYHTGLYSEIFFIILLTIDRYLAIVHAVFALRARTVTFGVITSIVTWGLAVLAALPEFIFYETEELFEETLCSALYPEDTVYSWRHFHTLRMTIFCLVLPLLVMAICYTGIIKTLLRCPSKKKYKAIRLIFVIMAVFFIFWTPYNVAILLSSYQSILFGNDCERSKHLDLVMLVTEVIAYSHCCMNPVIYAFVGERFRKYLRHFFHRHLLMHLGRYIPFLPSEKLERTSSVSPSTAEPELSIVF
The experiment is described as follows: CCR3 Receptor Binding Assay ([125I]-labeled human eotaxin/CCL11 displacement on cells). As to the method: Cells were washed once with PBS and resuspended in a binding buffer (25 mM HEPES pH 7.6, 5 mM MgCl2, 1 mM CaCl2, 0.5% BSA, 0.1% NaN3), […] of cell suspension (2×10^5 cells/well) and 0.1 nM [^125I]-labeled human eotaxin/CCL11 (2000 Ci/mmol specific activity) were mixed in a 96-well U-bottom polypropylene plate, and incubated for 60 min at room temperature for the binding reaction. The cell suspension was then transferred to a filtration plate (#MAFB, Millipore), and washed 3 times with the binding buffer containing 0.5 M NaCl, scintillant added, and the radioactivity was counted on a TopCount (Packard). For the determination of non-specific binding, the cell suspension and [^125I]-labeled human eotaxin/CCL11 were incubated in the presence of 500 nM of unlabeled human eotaxin/CCL11. See, lino et al., “Molecular cloning and functional characterization of cynomolgus monkey (Macaca fascicularis) CC chemokine receptor, CCR3,” Cytokine 2002, 19, 276-286.

Where [1] appears, read: Free (free form of the compound).
The mark [2] stands for this setting: HCl: hydrochloric acid salt of the corresponding compound.

A value given as a limit tells only on which side of the number the result lay.

Compound `CN1CCN(S(=O)(=O)c2cc(C#N)ccc2Oc2cc(Cl)ccc2Cl)CC1` [Compound 96, 4-(2,5-Dichlorophenoxy)-3-(4-methylpiperazin-1-ylsulfonyl)benzonitrile] displayed an inhibition constant (Ki) under setting [1] of 25 to 100 nM. Turning to `Cc1ccc(C)c(Oc2ccc([N+](=O)[O-])cc2S(=O)(=O)N2CCN(C(C)C)CC2)c1` [Compound 109, 1-(2-(2,5-Dimethylphenoxy)-5-nitrophenylsulfonyl)-4-isopropylpiperazine], the Ki under setting [1] is > 5 nM. As for `CC(C)N1CCCN(S(=O)(=O)c2cc(C#N)ccc2Oc2cc(Cl)ccc2Cl)CC1` [Compound 98, 4-(2,5-Dichlorophenoxy)-3-(4-isopropyl-1,4-diazepan-1-ylsulfonyl)benzonitrile], the inhibition constant Ki under setting [2] fell in the range of 25 to 100 nM. Take `N#Cc1ccc(Oc2cc(F)ccc2F)c(S(=O)(=O)N2CCC(N3CCCC3)CC2)c1` [Compound 60, 4-(2,5-Difluorophenoxy)-3-(4-(pyrrolidin-1-yl)piperidin-1-ylsulfonyl)benzonitrile]: the Ki is > 5 nM under setting [1] and > 5 nM under setting [2]. On to `O=[N+]([O-])c1ccc(Oc2cc(Cl)ccc2Cl)c(S(=O)(=O)N2CCN(C3CCCCC3)CC2)c1` [Compound 119, 1-Cyclohexyl-4-(2-(2,5-dichlorophenoxy)-5-nitrophenylsulfonyl)piperazine], for which, under setting [1], the inhibition constant Ki is ≤ 10 nM.

Turning to `Cc1ccc(C)c(Sc2ccc(C#N)cc2S(=O)(=O)N2CC(C)NC(C)C2)c1` (stereo not drawn) [Compound 66, 4-(2,5-Dimethylphenylthio)-3-(3,5-dimethylpiperazin-1-ylsulfonyl)-benzonitrile], the Ki under setting [1] was ≤ 10 nM. The same measure, in the same setting: with `O=C1CN(S(=O)(=O)c2cc([N+](=O)[O-])ccc2Sc2cc(Cl)ccc2Cl)CCN1` [Compound 124, 4-(2-(2,5-Dichlorophenylthio)-5-nitrophenylsulfonyl)piperazin-2-one] the figure was ≤ 10 nM; with `Cc1ccc(C)c(Sc2ccc([N+](=O)[O-])cc2S(=O)(=O)N2CCNC(=O)C2)c1` [Compound 125, 4-(2-(2,5-Dimethylphenylthio)-5-nitrophenylsulfonyl)piperazin-2-one], > 5 nM. Take `Cc1ccc(C)c(Sc2ccc([N+](=O)[O-])cc2S(=O)(=O)N2CCC(N3CCCC3)CC2)c1` [Compound 75, 1-(2-(2,5-Dimethylphenylthio)-5-nitrophenylsulfonyl)-4-(pyrrolidin-1-yl)piperidine]: the inhibitory constant (Ki) under setting [2] was ≤ 10 nM.

Regarding `CCC(CC)N1CCN(S(=O)(=O)c2cc(C#N)ccc2Sc2cc(Cl)ccc2Cl)CC1` [Compound 78, 4-(2,5-Dichlorophenylthio)-3-(4-(pentan-3-yl)piperazin-1-ylsulfonyl)-benzonitrile], the Ki is, setting by setting: under setting [1], 25 to 100 nM; under setting [2], 25 to 100 nM. Turning to `Cc1ccc(C)c(Oc2ccc([N+](=O)[O-])cc2S(=O)(=O)N2CCNCC2)c1` [Compound 148, 1-(2-(2,5-Dimethylphenoxy)-5-nitrophenylsulfonyl)piperazine], under setting [2], the Ki is > 5 nM. Turning to `N#Cc1ccc(Sc2cc(Cl)ccc2Cl)c(S(=O)(=O)N2CCN(C3CCCC3)CC2)c1` [Compound 80, 3-(4-Cyclopentylpiperazin-1-ylsulfonyl)-4-(2,5-dichlorophenylthio)-benzonitrile], the Ki was 25 to 100 nM ((CO2H)2 salt); ≤ 10 nM (EtSO3H salt); ≤ 10 nM under setting [1]; ≤ 10 nM (H2SO4 salt); ≤ 10 nM under setting [2]; 25 to 100 nM (HNO3 salt). Also, the inhibition constant (Ki) (MeSO3H salt) was ≤ 10 nM. As for `CN(C)C1CCN(S(=O)(=O)c2cc(C#N)ccc2Oc2cc(F)ccc2F)CC1` [Compound 59, 4-(2,5-Difluorophenoxy)-3-(4-(dimethylamino)piperidin-1-ylsulfonyl)benzonitrile], the Ki was > 5 nM under setting [1] and > 5 nM under setting [2]. On to `N#Cc1ccc(Oc2cc(Cl)ccc2Cl)c(S(=O)(=O)N2CCN(C3CCCCCC3)CC2)c1` [Compound 91, 3-(4-Cycloheptylpiperazin-1-ylsulfonyl)-4-(2,5-dichlorophenoxy)benzonitrile], for which the inhibitory constant (Ki) under setting [1] lay within 10 to 25 nM. `Cc1ccc(C)c(Sc2ccc(C#N)cc2S(=O)(=O)N2CCN(C(C)C)CC2)c1` [Compound 67, 4-(2,5-Dimethylphenylthio)-3-(4-isopropylpiperazin-1-ylsulfonyl)benzonitrile]: the Ki reads like this: under setting [1], 25 to 100 nM; under setting [2], 100 to 500 nM. `CCCC(C)N1CCN(S(=O)(=O)c2cc(C#N)ccc2Oc2cc(Cl)ccc2Cl)CC1` (stereo not drawn) [Compound 90, 4-(2,5-Dichlorophenoxy)-3-(4-(pentan-2-yl)piperazin-1-ylsulfonyl)-benzonitrile] yielded a Ki under setting [1] of 10 to 25 nM. For the compound `Cc1ccc(C)c(Oc2ccc([N+](=O)[O-])cc2S(=O)(=O)N2CC(C)NC(C)C2)c1` (stereo not drawn) [Compound 106, 1-(2-(2,5-Dimethylphenoxy)-5-nitrophenylsulfonyl)-3,5-dimethylpiperazine], the inhibition constant Ki under setting [1] is > 5 nM. Regarding `Cc1ccc(C)c(Sc2ccc(C#N)cc2S(=O)(=O)N2CCC(N3CCCC3)CC2)c1` [Compound 74, 4-(2,5-Dimethylphenylthio)-3-(4-(pyrrolidin-1-yl)piperidin-1-ylsulfonyl)-benzonitrile], the Ki reads like this: under setting [1], 10 to 25 nM; under setting [2], ≤ 10 nM.

For `CCN1CCN(S(=O)(=O)c2cc([N+](=O)[O-])ccc2Sc2cc(Cl)ccc2Cl)CC1` [Compound 99], under setting [1], the inhibition constant (Ki) was in the range of 10 to 25 nM.

As to `Cc1ccc(C)c(Oc2ccc([N+](=O)[O-])cc2S(=O)(=O)N2CCN(C3CCCCC3)CC2)c1` [Compound 121, 1-Cyclohexyl-4-(2-(2,5-dimethylphenoxy)-5-nitrophenylsulfonyl)piperazine], the Ki under setting [1] was ≤ 10 nM. Regarding `CN1CCCN(S(=O)(=O)c2cc(C#N)ccc2Sc2cc(Cl)ccc2Cl)CC1` [Compound 81, 4-(2,5-Dichlorophenylthio)-3-(4-methyl-1,4-diazepan-1-ylsulfonyl)-benzonitrile], the Ki is ≤ 10 nM under setting [1] and 10 to 25 nM under setting [2]. `CC1CN(S(=O)(=O)c2cc(C#N)ccc2Sc2cc(Cl)ccc2Cl)CC(C)N1` (stereo not drawn) [Compound 79, 4-(2,5-Dichlorophenylthio)-3-(3,5-dimethylpiperazin-1-ylsulfonyl)benzonitrile]: the inhibitory constant (Ki) under setting [1] is ≤ 10 nM and the inhibition constant Ki under setting [2] was ≤ 10 nM. For the compound `Cc1ccc(C)c(Sc2ccc(C#N)cc2S(=O)(=O)N2CCOCC2)c1` [Compound 71, 4-(2,5-Dimethylphenylthio)-3-(morpholinosulfonyl)benzonitrile], the Ki under setting [1] was > 5 nM. As for `CC(C)(O)C1CCN(S(=O)(=O)c2cc(C#N)ccc2Oc2cc(Cl)ccc2Cl)CC1` [Compound 97, 4-(2,5-Dichlorophenoxy)-3-(4-(2-hydroxypropan-2-yl)piperidin-1-ylsulfonyl)benzonitrile], the inhibition constant (Ki) under setting [1] fell in the range of 100 to 500 nM. The same measure, in the same setting: with `Cc1ccc(C)c(Sc2ccc(C#N)cc2S(=O)(=O)N2CCNCC2)c1` [Compound 65, 4-(2,5-Dimethylphenylthio)-3-(piperazin-1-ylsulfonyl)benzonitrile] the figure was > 5 nM. For the compound `N#Cc1ccc(Sc2cc(Cl)ccc2Cl)c(S(=O)(=O)N2CCC(N3CCCC3)CC2)c1` [Compound 84, 4-(2,5-Dichlorophenylthio)-3-(4-(pyrrolidin-1-yl)piperidin-1-ylsulfonyl)benzonitrile], the Ki reads like this: under setting [1], ≤ 10 nM; under setting [2], ≤ 10 nM.

Regarding `CCN(CC)CCNS(=O)(=O)c1cc(C#N)ccc1Oc1cc(F)ccc1F` [Compound 62, 5-Cyano-N-(2-(diethylamino)ethyl)-2-(2,5-difluorophenoxy)benzenesulfonamide], the Ki under setting [2] is > 5 nM. Regarding `Cc1ccc(C)c(Sc2ccc(C#N)cc2S(=O)(=O)N2CCCN(C)CC2)c1` [Compound 70, 4-(2,5-Dimethylphenylthio)-3-(4-methyl-1,4-diazepan-1-ylsulfonyl)benzonitrile], the Ki under setting [1] lay within 100 to 500 nM. For `CCCCc1nc(Cl)c2n1C(=O)N(C1CCN(S(=O)(=O)c3cc(C#N)ccc3Oc3cc(Cl)ccc3Cl)CC1)C2` [Compound 93, 3-(4-(5-Butyl-7-chloro-3-oxo-1H-imidazo[1,5-c]imidazol-2(3H)-yl)piperidin-1-ylsulfonyl)-4-(2,5-dichlorophenoxy)benzonitrile], the inhibitory constant (Ki) under setting [1] is > 5 nM.

As to `CCC(CC)N1CCN(S(=O)(=O)c2cc(C#N)ccc2Sc2cc(C)ccc2C)CC1` [Compound 68, 4-(2,5-Dimethylphenylthio)-3-(4-(pentan-3-yl)piperazin-1-ylsulfonyl)benzonitrile], the Ki under setting [1] was 25 to 100 nM and the Ki under setting [2] lay within 25 to 100 nM. Take `CCN1CCN(S(=O)(=O)c2cc([N+](=O)[O-])ccc2Oc2cc(Cl)ccc2Cl)CC1` [Compound 100, 1-(2-(2,5-Dichlorophenoxy)-5-nitrophenylsulfonyl)-4-ethylpiperazine]: the Ki under setting [1] was ≤ 10 nM. Still for that read-out and setting: with `CCC(CC)N1CCN(S(=O)(=O)c2cc(C#N)ccc2Oc2cc(F)ccc2F)CC1` [Compound 55, 4-(2,5-Difluorophenoxy)-3-(4-(pentan-3-yl)piperazin-1-ylsulfonyl)benzonitrile] the figure was > 5 nM; with `O=[N+]([O-])c1ccc(Sc2cc(Cl)ccc2Cl)c(S(=O)(=O)N2CCN(C3CCCCC3)CC2)c1` [Compound 118, 1-Cyclohexyl-4-(2-(2,5-dichlorophenylthio)-5-nitrophenylsulfonyl)piperazine], 10 to 25 nM.
